Laboratory results as given in US12590953B2, “Methods for screening cereblon modifying compounds” (CELGENE CORPORATION, priority 2018, dated 2026).
Entries after “also recorded” stand apart in the source; their conditions may differ.

Columns and labels:
[1] = target: T1, SALL4 (Homo sapiens, UniProt Q96SW2+Q9UJQ4); test: SALL4 protein level in human iPS cells, immunoblot; type: cell-based; conditions: 16 hours
T1 construct: host or cells: human iPS cells (CRBN wild-type and CRBN knock-out)
Procedure: Immunoblot analysis of whole cell lysates of CRBN wild-type (WT) and CRBN knock-out (−/−) human iPS cells was performed. Cells were treated with DMSO vehicle control (−) or thalidomide (Thal) at indicated concentrations for 16 hours (n=4, biological replicates).
Immunoblot analysis of whole cell lysates of human iPS cells treated with DMSO (−) or Thal (+) in the presence or absence of 1 μM MLN4924 or 10 μM MG132 for 6 hours were performed (n=2, biological replicates).
Human iPS cell lines ACS-1019 and ACS-1011 (derived from healthy donors) were obtained from ATCC. The hiPSCs were maintained in mTESR-1 medium (Stem Cell Technologies) in cell culture plates coated with a thin layer of Matrigel (BD Biosciences) incubated at 37° C. in a humidified 5% CO2 incubator according to the manufacturer's instruction. Cells were split through mechanic passaging with a glass pipet and enzymatically digestion with Dispase or Accutase every 2 to 3 days.
Human iPSCs, ACS-1019 was transduced with lentiviral vectors expressing CRISPR-Cas9 and small guide RNA targeting cereblon for 4 days. The resulting colonies were amplified and screened for cereblon knockout by immunoblot analysis with anti-CRBN65 antibody (Celgene).

[2] = system: SALL4; test: SALL4 immunohistochemistry in rabbit testis; type: in vivo; conditions: male rabbits
Procedure: Male New Zealand white rabbits were treated with vehicle (1% Carboxymethylcellulose in deionized water), or Thalidomide at either 30 or 150 mg/kg/day for 56 days to investigate testicular degeneration. Testis were collected 24 hours after the last dose, fixed in 10% NBF, processed, embedded in paraffin and sectioned at 4 microns for immunohistochemistry.
(§1) Rabbit embryos were stained for SALL4, and mouse testis were stained for SALL4 and ZFP91. Immunohistochemistry (IHC) was performed on the Bond-III automated slide stainer (Leica Microsystems, Buffalo Grove, Ill.) using the Bond Polymer Refine Detection system (Leica Microsystems, DS9800). Formalin fixed paraffin embedded (FFPE) tissues were sectioned at four micron thick and deparaffinized on the Bond-Max instrument. Antigen retrieval was performed with Epitope Retrieval 2 (ER2, pH 9.0) for 20 min at 100° C. The slides were blocked for endogenous peroxidase activity with Peroxide Block for 5 minutes at room temperature. Sections were then incubated with the mouse monoclonal anti-SALL4 EE-30 antibody (Santa Cruz, sc-101147) at a 1:100 dilution for 60 min at room temperature, or with the rabbit monoclonal anti-ZFP91 antibody (Celgene custom clone 122-8-6) at 0.25 ug/ml. […]

[3] = target: T2, SALL4 (Homo sapiens, UniProt Q96SW2); test: SALL4 immunohistochemistry in huCRBN mouse testis; type: in vivo; conditions: huCRBN mice, up to 1000 mg/kg for 7 days
T2 construct: from tissue; host or cells: testis of homozygous huCRBN knock-in mice
T2 sequence (Q96SW2 whole entry): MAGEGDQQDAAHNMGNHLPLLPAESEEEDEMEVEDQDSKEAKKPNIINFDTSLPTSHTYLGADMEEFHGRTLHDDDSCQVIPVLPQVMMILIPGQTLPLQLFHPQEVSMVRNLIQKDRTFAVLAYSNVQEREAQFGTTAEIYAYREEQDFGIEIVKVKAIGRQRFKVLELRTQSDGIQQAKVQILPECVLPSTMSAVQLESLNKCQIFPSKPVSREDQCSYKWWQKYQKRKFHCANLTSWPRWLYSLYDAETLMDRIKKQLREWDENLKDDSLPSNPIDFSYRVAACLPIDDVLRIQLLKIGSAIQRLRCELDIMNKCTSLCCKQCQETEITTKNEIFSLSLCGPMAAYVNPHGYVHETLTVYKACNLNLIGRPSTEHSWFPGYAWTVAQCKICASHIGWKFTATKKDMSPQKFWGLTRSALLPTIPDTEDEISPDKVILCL
T2 sequence (Q3U1J4 whole entry partner): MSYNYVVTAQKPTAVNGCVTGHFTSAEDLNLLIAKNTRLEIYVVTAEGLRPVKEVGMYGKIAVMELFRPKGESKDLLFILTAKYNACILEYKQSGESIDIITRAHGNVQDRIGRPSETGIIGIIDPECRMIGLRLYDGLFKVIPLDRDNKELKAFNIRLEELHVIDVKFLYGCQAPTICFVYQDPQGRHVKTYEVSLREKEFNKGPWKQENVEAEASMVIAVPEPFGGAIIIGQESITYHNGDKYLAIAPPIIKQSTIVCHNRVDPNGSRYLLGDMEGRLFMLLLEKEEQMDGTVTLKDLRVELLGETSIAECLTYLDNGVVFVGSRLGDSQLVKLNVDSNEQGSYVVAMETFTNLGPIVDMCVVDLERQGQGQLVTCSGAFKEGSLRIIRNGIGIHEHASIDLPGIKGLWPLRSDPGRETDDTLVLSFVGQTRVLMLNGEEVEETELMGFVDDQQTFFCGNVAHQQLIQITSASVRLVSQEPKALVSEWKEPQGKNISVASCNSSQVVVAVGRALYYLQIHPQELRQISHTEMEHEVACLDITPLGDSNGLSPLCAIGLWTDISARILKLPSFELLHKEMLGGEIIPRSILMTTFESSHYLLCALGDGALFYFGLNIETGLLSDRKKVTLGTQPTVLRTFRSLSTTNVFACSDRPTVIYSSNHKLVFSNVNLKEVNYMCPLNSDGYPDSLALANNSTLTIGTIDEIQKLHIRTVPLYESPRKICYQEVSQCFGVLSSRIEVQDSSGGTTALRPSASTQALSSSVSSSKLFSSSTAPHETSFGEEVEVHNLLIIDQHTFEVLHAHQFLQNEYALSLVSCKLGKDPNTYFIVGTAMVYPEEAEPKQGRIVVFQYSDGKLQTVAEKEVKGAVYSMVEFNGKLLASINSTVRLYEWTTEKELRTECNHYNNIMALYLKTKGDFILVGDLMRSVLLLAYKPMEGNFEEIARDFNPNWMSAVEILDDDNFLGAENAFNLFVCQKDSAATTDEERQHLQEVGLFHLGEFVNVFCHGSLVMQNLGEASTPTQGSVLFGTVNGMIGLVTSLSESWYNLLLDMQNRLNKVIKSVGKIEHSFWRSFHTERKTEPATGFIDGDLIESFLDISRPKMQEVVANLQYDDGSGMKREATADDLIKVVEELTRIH
Procedure: (§2) The SALL4 and ZFP91 protein levels were examined by immunohistochemistry in rabbit, wild-type mouse, and humanized cereblon mouse testes. […] HuCRBN Mice were treated for 7 days and testis were collected and examined by immunohistochemistry (n=3 animals per treatment group per species).
as §1, with “ug/ml. For mouse testis, primary antibodies were incubated for 15 min at room temperature, and Post-Primary and horseradish peroxidase (HRP) labeled Polymer were incubated at the instrument's default conditions.” for “ug/ml.”

[4] = target: T3, SALL4 (Mus musculus, UniProt Q8BX22); test: SALL4 immunohistochemistry in wild-type mouse testis; type: in vivo; conditions: wild type mice, 1000 mg/kg
T3 construct: tissue Taconic; host or cells: wild-type mouse testis (C57Bl/6Ntac)
T3 sequence (Q8C7D2 whole entry partner): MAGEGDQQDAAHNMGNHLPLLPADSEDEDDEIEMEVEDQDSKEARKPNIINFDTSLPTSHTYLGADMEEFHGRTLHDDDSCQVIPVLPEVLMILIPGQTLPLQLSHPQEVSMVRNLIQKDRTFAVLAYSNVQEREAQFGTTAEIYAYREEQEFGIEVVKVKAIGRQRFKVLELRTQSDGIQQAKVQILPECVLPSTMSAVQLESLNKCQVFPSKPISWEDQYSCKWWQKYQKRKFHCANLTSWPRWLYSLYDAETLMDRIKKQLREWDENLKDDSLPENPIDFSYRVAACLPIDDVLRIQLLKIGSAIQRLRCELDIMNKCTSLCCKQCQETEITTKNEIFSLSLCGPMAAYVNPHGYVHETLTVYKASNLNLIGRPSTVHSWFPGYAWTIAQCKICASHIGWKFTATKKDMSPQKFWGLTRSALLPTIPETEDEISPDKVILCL
T3 sequence (Q3U1J4 whole entry partner): as the sequence (Q3U1J4 whole entry partner) above
T3 sequence (Q8BX22 whole entry): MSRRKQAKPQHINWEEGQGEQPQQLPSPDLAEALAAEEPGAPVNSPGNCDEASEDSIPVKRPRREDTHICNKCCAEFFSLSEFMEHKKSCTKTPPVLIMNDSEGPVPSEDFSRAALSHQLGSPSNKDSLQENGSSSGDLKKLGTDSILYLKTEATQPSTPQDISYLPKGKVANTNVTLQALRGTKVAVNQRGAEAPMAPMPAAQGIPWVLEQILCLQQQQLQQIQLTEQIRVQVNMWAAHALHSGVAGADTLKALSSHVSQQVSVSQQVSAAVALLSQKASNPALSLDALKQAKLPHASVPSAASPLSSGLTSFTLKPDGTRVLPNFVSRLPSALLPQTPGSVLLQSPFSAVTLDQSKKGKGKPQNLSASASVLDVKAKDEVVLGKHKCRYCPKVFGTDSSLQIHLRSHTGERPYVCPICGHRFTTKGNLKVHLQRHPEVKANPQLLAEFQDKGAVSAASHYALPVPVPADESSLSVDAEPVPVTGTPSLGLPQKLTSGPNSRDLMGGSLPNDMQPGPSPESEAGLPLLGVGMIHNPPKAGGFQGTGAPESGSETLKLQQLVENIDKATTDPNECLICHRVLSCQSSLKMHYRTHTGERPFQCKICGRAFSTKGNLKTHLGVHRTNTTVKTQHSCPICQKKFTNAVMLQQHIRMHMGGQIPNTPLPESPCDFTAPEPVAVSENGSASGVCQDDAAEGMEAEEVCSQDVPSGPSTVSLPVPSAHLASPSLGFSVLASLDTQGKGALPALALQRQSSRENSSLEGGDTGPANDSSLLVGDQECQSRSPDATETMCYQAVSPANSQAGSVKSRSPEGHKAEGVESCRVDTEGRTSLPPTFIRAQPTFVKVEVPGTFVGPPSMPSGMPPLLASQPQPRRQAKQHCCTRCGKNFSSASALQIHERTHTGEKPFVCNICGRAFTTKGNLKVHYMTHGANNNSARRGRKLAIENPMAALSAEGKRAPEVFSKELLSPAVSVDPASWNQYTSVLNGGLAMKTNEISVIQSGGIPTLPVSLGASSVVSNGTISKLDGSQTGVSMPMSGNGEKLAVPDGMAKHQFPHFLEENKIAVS
Procedure: as §2
as §1, with “ug/ml. For mouse testis, primary antibodies were incubated for 15 min at room temperature, and Post-Primary and horseradish peroxidase (HRP) labeled Polymer were incubated at the instrument's default conditions.” for “ug/ml.”

T1 sequence (Q9UJQ4 whole entry): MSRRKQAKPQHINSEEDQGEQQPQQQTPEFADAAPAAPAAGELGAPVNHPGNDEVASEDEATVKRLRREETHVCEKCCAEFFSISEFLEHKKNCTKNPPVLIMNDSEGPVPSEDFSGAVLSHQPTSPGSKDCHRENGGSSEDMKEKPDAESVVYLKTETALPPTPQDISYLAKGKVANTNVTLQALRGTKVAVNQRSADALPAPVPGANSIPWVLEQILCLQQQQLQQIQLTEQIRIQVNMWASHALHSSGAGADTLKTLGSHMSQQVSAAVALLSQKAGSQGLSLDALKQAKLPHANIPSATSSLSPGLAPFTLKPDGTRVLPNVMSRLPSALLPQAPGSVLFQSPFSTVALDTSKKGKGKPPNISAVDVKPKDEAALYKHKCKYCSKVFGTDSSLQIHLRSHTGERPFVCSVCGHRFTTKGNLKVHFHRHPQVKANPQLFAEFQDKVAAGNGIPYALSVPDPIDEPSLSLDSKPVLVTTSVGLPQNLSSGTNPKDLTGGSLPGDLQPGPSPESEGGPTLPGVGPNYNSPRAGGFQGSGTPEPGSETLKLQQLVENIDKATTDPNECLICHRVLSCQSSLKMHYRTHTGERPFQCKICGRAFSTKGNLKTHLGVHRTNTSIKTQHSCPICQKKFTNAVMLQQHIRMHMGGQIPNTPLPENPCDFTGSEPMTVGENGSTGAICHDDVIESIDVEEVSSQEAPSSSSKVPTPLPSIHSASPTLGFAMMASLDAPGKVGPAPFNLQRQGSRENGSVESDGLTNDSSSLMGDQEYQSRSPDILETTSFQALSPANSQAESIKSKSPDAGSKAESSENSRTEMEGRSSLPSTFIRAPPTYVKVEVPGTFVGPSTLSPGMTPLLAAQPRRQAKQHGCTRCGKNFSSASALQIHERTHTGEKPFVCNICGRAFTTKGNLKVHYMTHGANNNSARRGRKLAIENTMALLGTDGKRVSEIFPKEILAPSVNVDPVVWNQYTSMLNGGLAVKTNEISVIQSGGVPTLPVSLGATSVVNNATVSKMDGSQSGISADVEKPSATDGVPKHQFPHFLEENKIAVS
T1 sequence (Q96SW2 whole entry): as the sequence (Q96SW2 whole entry) above
T1 sequence (Q16531 whole entry partner): as the sequence (Q3U1J4 whole entry partner) above, with G418N, G495A, S745T, A1020T counted along it

Structure (SMILES): O=C1CCC(N2C(=O)c3ccccc3C2=O)C(=O)N1 (stereo not drawn) [thalidomide]
- SALL4 protein levels in CRBN wild-type human iPS cells ([1]; indicated concentrations): reduced upon exposure to thalidomide in a dose dependent fashion; also recorded: dependent on thalidomide and cerelon
- SALL4 downregulation in CRBN knock-out human iPS cells ([1]; CRISPR-mediated cereblon knockout): completely blocked the downregulation of SALL4 induced by thalidomide
- SALL4 protein levels in testis ([2]; 150 mg/kg/day): marked decrease; also recorded: caused degradation of both ZFP91 and SALL4
- SALL4 protein levels in testis, dose dependence ([2]; 30 or 150 mg/kg/day for 56 days): dose-dependent decrease in SALL4 levels in the testis of male rabbits; also recorded: dose-dependent reduction of SALL4 protein levels in the testis; also recorded: dose dependent decrease in SALL4 levels in rabbit testis
- SALL4 protein levels in testis [3]: remain unchanged; also recorded: caused degradation of ZFP91 but not SALL4
- SALL4 protein levels in testis [4]: exhibited no depletion of SALL4 or ZFP91; also recorded: did not cause significant degradation of either ZFP91 or SALL4
